Measurements from the NIST ThermoML archive (doi:10.1016/j.jct.2016.06.016).
± gives the expanded uncertainty stated by the source.

What was measured:
[1] = xn = mol fraction of the nth substance listed; details: 100 kPa, Liquid, x2 = 0; for viscosity: Concentric cylinders viscometry; for mass density: Vibrating tube method
[2] = refractive index (Na D-line) (dimensionless); xn = mol fraction of the nth substance listed; details: 100 kPa, Liquid, Standard Abbe refractometry, x2 = 0
[3] = 100 kPa, Liquid; for viscosity: Concentric cylinders viscometry; for mass density: Vibrating tube method
[4] = refractive index (Na D-line) (dimensionless); details: 100 kPa, Liquid, Standard Abbe refractometry

CCCCO [butan-1-ol] + CCOC(=O)CCC(=O)OCC
Details | mass density, [1] [kg/m3] | refractive index, [2] | viscosity, [1] [mPa·s]
288.15 K | 813.46 ± 0.81 | 1.4012 ± 0.0014 | 3.365 ± 0.028
293.15 K | 809.66 ± 0.81 | 1.3992 ± 0.0014 | 2.913 ± 0.025
298.15 K | 805.84 ± 0.81 | 1.3972 ± 0.0014 | 2.563 ± 0.022
303.15 K | 801.99 ± 0.81 | 1.3951 ± 0.0014 | 2.257 ± 0.019
308.15 K | 798.12 ± 0.81 | 1.393 ± 0.0014 | 1.994 ± 0.017
313.15 K | 794.22 ± 0.81 | 1.391 ± 0.0014 | 1.779 ± 0.016
318.15 K | 790.28 ± 0.81 | 1.3889 ± 0.0014 | 1.576 ± 0.014
323.15 K | 786.29 ± 0.81 | 1.3867 ± 0.0014 | 1.422 ± 0.013

CCOC(=O)CCC(=O)OCC [diethyl butanedioate]
Details | mass density, [3] [kg/m3] | refractive index, [4] | viscosity, [3] [mPa·s]
288.15 K | 1044.83 ± 0.84 | 1.4217 ± 0.0014 | 3.195 ± 0.03
293.15 K | 1039.63 ± 0.83 | 1.4195 ± 0.0014 | 2.807 ± 0.027
298.15 K | 1034.44 ± 0.83 | 1.4173 ± 0.0014 | 2.491 ± 0.024
303.15 K | 1029.25 ± 0.83 | 1.4151 ± 0.0014 | 2.229 ± 0.022
308.15 K | 1024.08 ± 0.83 | 1.4129 ± 0.0014 | 2.008 ± 0.02
313.15 K | 1018.9 ± 0.83 | 1.4108 ± 0.0014 | 1.821 ± 0.018
318.15 K | 1013.72 ± 0.83 | 1.4088 ± 0.0014 | 1.66 ± 0.017
323.15 K | 1008.55 ± 0.83 | 1.4067 ± 0.0014 | 1.523 ± 0.015

CCCCCCO [hexan-1-ol] + CCOC(=O)CCC(=O)OCC
Details | mass density, [1] [kg/m3] | refractive index, [2] | viscosity, [1] [mPa·s]
288.15 K | 822.26 ± 0.83 | 1.4196 ± 0.0014 | 6.308 ± 0.058
293.15 K | 818.7 ± 0.83 | 1.4176 ± 0.0014 | 5.332 ± 0.05
298.15 K | 815.12 ± 0.83 | 1.4156 ± 0.0014 | 4.538 ± 0.042
303.15 K | 811.52 ± 0.83 | 1.4136 ± 0.0014 | 3.896 ± 0.037
308.15 K | 807.89 ± 0.83 | 1.4117 ± 0.0014 | 3.361 ± 0.032
313.15 K | 804.25 ± 0.83 | 1.4097 ± 0.0014 | 2.917 ± 0.028
318.15 K | 800.56 ± 0.83 | 1.4078 ± 0.0014 | 2.546 ± 0.024
323.15 K | 796.85 ± 0.83 | 1.4058 ± 0.0014 | 2.241 ± 0.022

CCCO [propan-1-ol] + CCOC(=O)CCC(=O)OCC
Details | mass density, [1] [kg/m3] | refractive index, [2] | viscosity, [1] [mPa·s]
288.15 K | 807.75 ± 0.81 | 1.3875 ± 0.0014 | 2.514 ± 0.022
293.15 K | 803.77 ± 0.81 | 1.3854 ± 0.0014 | 2.208 ± 0.019
298.15 K | 799.76 ± 0.81 | 1.3834 ± 0.0014 | 1.95 ± 0.017
303.15 K | 795.72 ± 0.81 | 1.3814 ± 0.0014 | 1.727 ± 0.015
308.15 K | 791.64 ± 0.81 | 1.3792 ± 0.0014 | 1.542 ± 0.014
313.15 K | 787.52 ± 0.81 | 1.377 ± 0.0014 | 1.378 ± 0.013
318.15 K | 783.36 ± 0.81 | 1.3748 ± 0.0014 | 1.236 ± 0.012
323.15 K | 779.14 ± 0.81 | 1.3726 ± 0.0014 | 1.124 ± 0.011
